# According to patent publication US9133182B2, “Selective androgen receptor modulators” (Radius Health, Inc., priority 2010, dated 2015):
# Molecular target: androgen receptor (Rattus norvegicus (Rat), UniProt P15207)
# Assay: androgen receptor binding assay (fluorescence polarization, Invitrogen)
# Settings: AR-Fluormone complex, 4 h at room temperature; Table 1
# Description: The assay was performed as specified by the manufacturer (Invitrogen, Madison, Wis.). Briefly, 1 μl of 10 mM compound was added to 500 μl of AR screening buffer in a 1.5 ml eppendorf tube to make a 2×10^−5M stock. 10-fold serial dilutions of the test compounds were prepared ranging in concentration from 10^−5M to 10^−12M. Each dilution was added in triplicate to a black 384-microtiter plate. The test compounds will be diluted 2-fold in the final reaction. 2×AR-Fluormone™ complex was prepared with 2 nM Flourmone AL Green™ and 30 nM AR. 25 μl of 2×complex was aliquoted to each reaction well, such that the final reaction volume was 50 μl per well. Plate was sealed with a foil cover and incubated in the dark at room temperature for 4 h. Polarization values for each well were measured. The polarization values were plotted against the concentration of the test compound. […] As a control, a competition curve for R1881 (methyltrienolone) was performed for each assay.
# Chain of androgen receptor (P15207 651-902): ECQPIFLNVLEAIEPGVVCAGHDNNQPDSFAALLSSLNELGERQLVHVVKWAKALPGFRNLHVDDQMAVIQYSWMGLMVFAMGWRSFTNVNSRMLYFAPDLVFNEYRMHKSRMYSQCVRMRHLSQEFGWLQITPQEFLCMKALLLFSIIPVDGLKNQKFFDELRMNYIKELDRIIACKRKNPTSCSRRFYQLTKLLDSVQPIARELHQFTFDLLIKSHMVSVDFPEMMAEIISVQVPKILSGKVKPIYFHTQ
Compound,IC50 [nM],Binding IC50 (nM)
"N#Cc1ccc(N2C(=O)CC[C@@H]2[C@H](O)C(F)(F)F)cc1C(F)(F)F [Example 1, 4-((R)-2-oxo-5-((S)-2,2,2-trifluoro-1-hydroxyethyl)pyrrolidin-1-yl)-2-(trifluoromethyl)benzonitrile]",14,–
"N#Cc1ccc(N2C(=O)CC[C@@H]2[C@@H](O)C(F)(F)F)cc1C(F)(F)F [Example 2, 4-((R)-2-oxo-5-((R)-2,2,2-trifluoro-1-hydroxyethyl)pyrrolidin-1-yl)-2-(trifluoromethyl)benzonitrile]",100,–
"Cc1c(N2C(=O)CC[C@@H]2[C@H](O)C(F)(F)F)ccc(C#N)c1C(F)(F)F [Example 3, 3-methyl-4-((R)-2-oxo-5-((S)-2,2,2-trifluoro-1-hydroxyethyl)pyrrolidin-1-yl)-2-(trifluoromethyl)benzonitrile]",11,–
"Cc1c(N2C(=O)CC[C@@H]2[C@@H](O)C(F)(F)F)ccc(C#N)c1C(F)(F)F [Example 4, 3-methyl-4-((R)-2-oxo-5-((R)-2,2,2-trifluoro-1-hydroxyethyl)pyrrolidin-1-yl)-2-(trifluoromethyl)benzonitrile]",120,–
"O=C1CC[C@H]([C@H](O)C(F)(F)F)N1c1ccc2nnsc2c1 [Example 5, (R)-1-(Benzo[d][1,2,3]thiadiazol-6-yl)-5-((S)-2,2,2-trifluoro-1-hydroxyethyl)pyrrolidin-2-one]",530,–
"O=C1CC[C@H]([C@@H](O)C(F)(F)F)N1c1ccc2nnsc2c1 [Example 6, (R)-1-(Benzo[d][1,2,3]thiadiazol-6-yl)-5-((R)-2,2,2-trifluoro-1-hydroxyethyl)pyrrolidin-2-one]",–,No binding
"N#Cc1ccc(N2C(=O)OC[C@@H]2[C@H](O)C(F)(F)F)cc1C(F)(F)F [Example 7, 4-((R)-2-oxo-4-((S)-2,2,2-trifluoro-1-hydroxyethyl)oxazolidin-3-yl)-2-(trifluoromethyl)benzonitrile]",50,–
"N#Cc1ccc(N2C(=O)OC[C@@H]2[C@@H](O)C(F)(F)F)cc1C(F)(F)F [Example 8, 4-((R)-2-oxo-4-((R)-2,2,2-trifluoro-1-hydroxyethyl)oxazolidin-3-yl)-2-(trifluoromethyl)benzonitrile]",> 1000,–
"N#Cc1ccc(N2C(=O)OC[C@H]2[C@H](O)C(F)(F)F)cc1Cl [Example 9, 2-chloro-4-((S)-2-oxo-4-((S)-2,2,2-trifluoro-1-hydroxyethyl)oxazolidin-3-yl)benzonitrile]",45,–
"N#Cc1ccc(N2C(=O)OC[C@H]2[C@@H](O)C(F)(F)F)cc1Cl [Example 10, 2-chloro-4-((S)-2-oxo-4-((R)-2,2,2-trifluoro-1-hydroxyethyl)oxazolidin-3-yl)benzonitrile]",> 1000,–
"Cc1c(N2C(=O)OC[C@@H]2[C@H](O)C(F)(F)F)ccc(C#N)c1Cl [Example 11, 2-chloro-3-methyl-4-((R)-2-oxo-4-((S)-2,2,2-trifluoro-1-hydroxyethyl)oxazolidin-3-yl)benzonitrile]",25,–
"Cc1c(N2C(=O)OC[C@@H]2[C@@H](O)C(F)(F)F)ccc(C#N)c1Cl [Example 12, 2-chloro-3-methyl-4-((R)-2-oxo-4-((R)-2,2,2-trifluoro-1-hydroxyethyl)oxazolidin-3-yl)benzonitrile]",933,–
"Cc1c(N2C(=O)O[C@H](C)[C@@H]2[C@H](O)C(F)(F)F)ccc(C#N)c1Cl [Example 15, 2-chloro-3-methyl-4-((4S,5R)-5-methyl-2-oxo-4-((S)-2,2,2-trifluoro-1-hydroxyethyl)oxazolidin-3-yl)benzonitrile]",200,–
"Cc1c(N2C(=O)O[C@H](C)[C@@H]2[C@@H](O)C(F)(F)F)ccc(C#N)c1Cl [Example 16, 2-chloro-3-methyl-4-((4S,5R)-5-methyl-2-oxo-4-((R)-2,2,2-trifluoro-1-hydroxyethyl)oxazolidin-3-yl)benzonitrile]",> 1000,–
"Cc1c(N2C(=O)O[C@@H](C)[C@@H]2[C@@H](O)C(F)(F)F)ccc(C#N)c1Cl [Example 18, 2-chloro-3-methyl-4-((4S,5S)-5-methyl-2-oxo-4-((R)-2,2,2-trifluoro-1-hydroxyethyl)oxazolidin-3-yl)benzonitrile]",700,–
"Cc1c(N2C(=O)O[C@@H](C)[C@@H]2[C@H](O)C(F)(F)F)ccc(C#N)c1C(F)(F)F [Example 23, 3-methyl-4-((4S,5S)-5-methyl-2-oxo-4-((S)-2,2,2-trifluoro-1-hydroxyethyl)oxazolidin-3-yl)-2-(trifluoromethyl)benzonitrile]",33,–
"Cc1c(N2C(=O)O[C@@H](C)[C@@H]2[C@@H](O)C(F)(F)F)ccc(C#N)c1C(F)(F)F [Example 24, 3-methyl-4-((4S,5S)-5-methyl-2-oxo-4-((R)-2,2,2-trifluoro-1-hydroxyethyl)oxazolidin-3-yl)-2-(trifluoromethyl)benzonitrile]",> 1000,–

# Same assay, conditions: AR-Fluormone complex, 4 h at room temperature; Table 2
row,Compound,IC50 [nM]
1,"O=C1CC[C@H]([C@@H](O)C(F)(F)F)N1c1ccc(Cl)c(Cl)c1 [Example 28, (R)-1-(3,4-dichlorophenyl)-5-((R)-2,2,2-trifluoro-1-hydroxyethyl)pyrrolidin-2-one]",> 1000
2,"N#Cc1ccc(N2C(=O)CC[C@@H]2[C@@H](O)C(F)(F)F)cc1Cl [Example 33, 2-chloro-4-((R)-2-((R)-2,2,2-trifluoro-1-hydroxyethyl)-5-oxopyrrolidin-1-yl)benzonitrile]",65
3,"Cc1c(N2C(=O)O[C@H](C)[C@@H]2[C@H](O)C(F)(F)F)ccc(C#N)c1C(F)(F)F [Example 34, 4-((4S,5R)-4-((S)-2,2,2-trifluoro-1-hydroxyethyl)-5-methyl-2-oxooxazolidin-3-yl)-2-(trifluoromethyl)-3-methylbenzonitrile]",> 1000
4,"Cc1c(N2C(=O)O[C@H](C)[C@@H]2[C@@H](O)C(F)(F)F)ccc(C#N)c1C(F)(F)F [Example 35, 4-((4S,5R)-4-((R)-2,2,2-trifluoro-1-hydroxyethyl)-5-methyl-2-oxooxazolidin-3-yl)-2-(trifluoromethyl)-3-methylbenzonitrile]",> 10000
5,"C[C@H]1OC(=O)N(c2ccc(C#N)c(C(F)(F)F)c2)[C@H]1[C@H](O)C(F)(F)F [Example 36, 4-((4S,5R)-4-((S)-2,2,2-trifluoro-1-hydroxyethyl)-5-methyl-2-oxooxazolidin-3-yl)-2-(trifluoromethyl)benzonitrile]",> 1000
6,"C[C@H]1OC(=O)N(c2ccc(C#N)c(C(F)(F)F)c2)[C@H]1[C@@H](O)C(F)(F)F [Example 37, 4-((4S,5R)-4-((R)-2,2,2-trifluoro-1-hydroxyethyl)-5-methyl-2-oxooxazolidin-3-yl)-2-(trifluoromethyl)benzonitrile]",> 1000
7,"C[C@H]1OC(=O)N(c2ccc(C#N)c(Cl)c2)[C@H]1[C@H](O)C(F)(F)F [Example 38, 2-chloro-4-((4S,5R)-4-((S)-2,2,2-trifluoro-1-hydroxyethyl)-5-methyl-2-oxooxazolidin-3-yl)benzonitrile]",150
8,"C[C@H]1OC(=O)N(c2ccc(C#N)c(Cl)c2)[C@H]1[C@@H](O)C(F)(F)F [Example 39, 2-chloro-4-((4S,5R)-4-((R)-2,2,2-trifluoro-1-hydroxyethyl)-5-methyl-2-oxooxazolidin-3-yl)benzonitrile]",550

# Test system: immature, castrated rat (levator ani and bulba cavernous, LABC)
# Assay: In vivo rat Herschberger assay, LABC weight
# Set-up: key: no = no activity observed at highest dose tested.; yes = increased LABC weight relative to castrated vehicle control
# Settings: once daily oral gavage for 4 days, maximum tested dose between 1 mg/kg and 30 mg/kg, Table 1
# Text: In Vivo Rat Model of Androgen and Anabolic Activity-Rat Herschberger Assay
# The following is a typical procedure of the in vivo evaluation of the selective androgens of this invention. In particular, this assay looks primarily at the ability of the selective androgens of this invention to increase muscle size in an immature, castrated rat. In addition, androgenic effects are looked at primarily by weighing the prostate and seminal vesicles. Selective compounds will show a greater increase in the levator ani relative to the prostate and seminal vesicles when compared to testosterone treated, castrated animals or to intact animals that have not been treated. Immature Sprague Dawley male rats were obtained Charles River Laboratories (Stoneridge, N.Y.). All animals were maintained in a temperature and humidity controlled room with a 12 hr light: 12 hr dark cycle, with ad lib access to food (TD 291615, Teklad, Madison, Wis.) and water. Rats were anesthetized and orchidectomized (GDX) or sham surgery (SHAM) was performed. After a 7-day recovery period, the animals were randomized according to weight and assigned to treatment groups (n=5), SHAM, OVX+vehicle, OVX+Cpd treated. Testosterone propionate (TP 1 mg/kg in 5% DMSO/95% corn oil) was administered by once daily subcutaneous injections, while the compounds of the invention are dosed in vehicle (0.5% carboxymethylcellulose) was administered by once daily oral gavage. The rats were then dosed once daily for 4 days. All animals were euthanized via carbon dioxide inhalation 24 hs after the last dose. The prostate, seminal vesicle and levator ani and bulba cavernous (LABC) tissues were removed, weighed and recorded. An increase in mean LABC indicates anabolic activity for that particular compound with regard to oral dosing typically at a maximum tested dose of between 1 mg/kg and 30 mg/kg—see Table 1.
row,Compound,Oral activity in Herscheberger assay on LABC weight
1,"N#Cc1ccc(N2C(=O)CC[C@@H]2[C@H](O)C(F)(F)F)cc1C(F)(F)F [Example 1, 4-((R)-2-oxo-5-((S)-2,2,2-trifluoro-1-hydroxyethyl)pyrrolidin-1-yl)-2-(trifluoromethyl)benzonitrile]",yes
2,"Cc1c(N2C(=O)CC[C@@H]2[C@H](O)C(F)(F)F)ccc(C#N)c1C(F)(F)F [Example 3, 3-methyl-4-((R)-2-oxo-5-((S)-2,2,2-trifluoro-1-hydroxyethyl)pyrrolidin-1-yl)-2-(trifluoromethyl)benzonitrile]",yes
3,"N#Cc1ccc(N2C(=O)OC[C@@H]2[C@H](O)C(F)(F)F)cc1C(F)(F)F [Example 7, 4-((R)-2-oxo-4-((S)-2,2,2-trifluoro-1-hydroxyethyl)oxazolidin-3-yl)-2-(trifluoromethyl)benzonitrile]",yes
4,"N#Cc1ccc(N2C(=O)OC[C@H]2[C@H](O)C(F)(F)F)cc1Cl [Example 9, 2-chloro-4-((S)-2-oxo-4-((S)-2,2,2-trifluoro-1-hydroxyethyl)oxazolidin-3-yl)benzonitrile]",yes
5,"Cc1c(N2C(=O)OC[C@@H]2[C@H](O)C(F)(F)F)ccc(C#N)c1Cl [Example 11, 2-chloro-3-methyl-4-((R)-2-oxo-4-((S)-2,2,2-trifluoro-1-hydroxyethyl)oxazolidin-3-yl)benzonitrile]",yes
6,"C[C@@H]1OC(=O)N(c2ccc(C#N)c(C(F)(F)F)c2)[C@H]1[C@H](O)C(F)(F)F [Example 19, 4-((4S,5S)-5-methyl-2-oxo-4-((S)-2,2,2-trifluoro-1-hydroxyethyl)oxazolidin-3-yl)-2-(trifluoromethyl)benzonitrile]",yes
7,"C[C@@H]1OC(=O)N(c2ccc(C#N)c(C(F)(F)F)c2)[C@H]1[C@@H](O)C(F)(F)F [Example 20, 4-((4S,5S)-5-methyl-2-oxo-4-((R)-2,2,2-trifluoro-1-hydroxyethyl)oxazolidin-3-yl)-2-(trifluoromethyl)benzonitrile]",yes
